Test results as given in patent US5011831A, “Derivatives of quinolinecarboxylic acid” (Nippon Shinyaku Co. Ltd., priority 1987, dated 1991).
Values after ≈ are worked out from the molar mass of the structure shown. Read-outs that look alike come from different tables or passages of the source.

Columns and labels:
[1] = tested on: P. aeruginosa E-2; experiment: Therapeutic effect on infections in mice, similar test (Table 4); format: in vivo, ddY strain male mice; settings: P. aeruginosa E-2, 1.25×10^5 cfu/mouse
Experimental: (§1) Test method: E. Coli KC-14 and P. aeruginosa E-2 were suspended in 5% mucin and 0.5 ml of the suspension was injected intraperitoneally to ddY strain male mice (body weight: ca. 20 g; four weeks age; 10 mice per group). The amount of the bacteria inoculated was 5.1×10^4 CFU/mouse for E. coli and 7.5×10^4 CFU/mouse for P. aeruginosa. Drug was given orally once after 2 hours of inoculation and, out of the survival rate after one week, ED50 was calculated by a Probit method. As to a comparison/control, ofloxacin was used.
(§2) A similar test was conducted by inoculating E. coli KC-14 (2.5×10^5 cfu/mouse) and P. aeruginosa E-2 (1.25×10^5 cfu/mouse) and the result is given in Table 4.

[2] = tested on: E. Coli KC-14; experiment: as above; format: in vivo, ddY strain male mice; settings: E. coli KC-14, 2.5×10^5 cfu/mouse
Experimental: as §1, §2

[3] = tested on: Serratia marcescens IFO 3736; experiment: MIC, agar plate dilution method; format: cell-based
Experimental: (§3) Test Method: In accordance with a standard method by Japan Chemotherapeutic Society [Chemotherapy, 29(1), pages 76-79, 1981], agar plate dilution method was used and the MIC was measured. Thus, bouillon for measuring sensitivity was used and the bacterial liquid cultured at 37° C. for 18 hours was diluted to an extent of 10^6 CFU/ml using said medium. This was inoculated to an agar medium containing drug for measuring sensitivity using a microplanter, cultured at 37° C. for 18 hours, and MIC was measured. Ofloxacin was used for comparison/control.
(§4) The above described test was additionally conducted on the compounds of the examples described below using the same microorganisms.

[4] = tested on: Shigella flexneri 2a EW-10; experiment: MIC, agar plate dilution method; format: cell-based
Experimental: as §3, §4

[5] = tested on: Pseudomonas aeruginosa IFO-3445; experiment: MIC, agar plate dilution method; format: cell-based
Experimental: as §3, §4

[6] = tested on: Bacillus subtilis ATCC 6633; experiment: MIC, agar plate dilution method; format: cell-based
Experimental: as §3, §4

[7] = tested on: Streptococcus pyogenes S-23; experiment: MIC, agar plate dilution method; format: cell-based
Experimental: as §3, §4

[8] = tested on: Escherichia coli N1HJ JC-2; experiment: MIC, agar plate dilution method; format: cell-based
Experimental: as §3, §4

[9] = tested on: Klebsiella pneumoniae NCTC 9632; experiment: MIC, agar plate dilution method; format: cell-based
Experimental: as §3, §4

[10] = tested on: Streptococcus pneumoniae Type I; experiment: MIC, agar plate dilution method; format: cell-based
Experimental: as §3, §4

[11] = tested on: Staphylococcus aureus 209-P JC-1; experiment: MIC, agar plate dilution method; format: cell-based
Experimental: as §3, §4

[12] = tested on: Proteus mirabilis IFO 3849; experiment: MIC, agar plate dilution method; format: cell-based; settings: IFO3849, Table 1, 10^6 CFU/ml, 37° C., 18 hours
Experimental: as §3, §4

[13] = tested on: P. aeruginosa E-2; experiment: Therapeutic effect on infections in mice (Table 3); format: in vivo, ddY strain male mice; settings: P. aeruginosa E-2, 7.5×10^4 CFU/mouse i.p.; drug orally once 2 hours after inoculation; survival after one week, Probit
Experimental: as §1

[14] = tested on: E. Coli KC-14; experiment: Therapeutic effect on infections in mice (Table 3); format: in vivo, ddY strain male mice; settings: E. coli KC-14, 5.1×10^4 CFU/mouse i.p.; drug orally once 2 hours after inoculation; survival after one week, Probit
Experimental: as §1

[15] = IFO3736, Table 1, 10^6 CFU/ml, 37° C., 18 hours
[16] = 2AEW10, Table 1, 10^6 CFU/ml, 37° C., 18 hours
[17] = IFO3445, Table 1, 10^6 CFU/ml, 37° C., 18 hours
[18] = ATCC6633, Table 1, 10^6 CFU/ml, 37° C., 18 hours
[19] = S23, Table 1, 10^6 CFU/ml, 37° C., 18 hours
[20] = NCTC9632, Table 1, 10^6 CFU/ml, 37° C., 18 hours
[21] = Table 1, 10^6 CFU/ml, 37° C., 18 hours
[22] = IFO3736, 18 h, Table 2, same microorganisms as Table 1
[23] = 2AEW10, 18 h, Table 2, same microorganisms as Table 1
[24] = IFO3445, 18 h, Table 2, same microorganisms as Table 1
[25] = ATCC6633, 18 h, Table 2, same microorganisms as Table 1
[26] = N1HJJC2, 18 h, Table 2, same microorganisms as Table 1, read-out: MIC
[27] = NCTC9632, 18 h, Table 2, same microorganisms as Table 1
[28] = 18 h, Table 2, same microorganisms as Table 1

Row | SMILES | ED50 [1] | ED50 [2] | ED50 [13] | ED50 [14] | MIC [3, 22] | MIC [4, 23] | MIC [5, 24] | MIC [6, 25] | MIC [8, 26] | MIC [9, 27] | MIC [11, 28] | further results
1 | CC1Sc2c(C(=O)O)c(=O)c3cc(F)c(N4CCNCC4)c(F)c3n21 (centres unmarked) [Example 2, 6,8-Difluoro-1-methyl-4-oxo-7-(1-piperazinyl)-4H-[1,3]thiazeto[3,2-a]quinoline-3-carboxylic acid] | 0.156 mg/mouse | 0.013 mg/mouse | 0.154 mg/mouse | 0.0078 mg/mouse |  |  |  |  |  |  |  | MIC [3, 15]: 0.1 µg/mL (≈ 0.272 µM); MIC [4, 16]: ≤ 0.00625 µg/mL; MIC [5, 17]: 0.1 µg/mL (≈ 0.272 µM); MIC [6, 18]: 0.05 µg/mL (≈ 0.136 µM); MIC [7, 19]: 0.39 µg/mL (≈ 1.06 µM); MIC ([8]; N1HJJC2, 18 h): 0.0125 µg/mL (≈ 0.034 µM); MIC [9, 20]: 0.0125 µg/mL (≈ 0.034 µM); MIC [10, 21]: 0.39 µg/mL (≈ 1.06 µM); MIC [11, 21]: 0.1 µg/mL (≈ 0.272 µM); MIC [12]: 0.025 µg/mL (≈ 0.068 µM)
2 | O=C(O)c1c2n(c3c(F)c(N4CCNCC4)c(F)cc3c1=O)CS2 [Example 5, 6,8-Difluoro-4-oxo-7-(1-piperazinyl)-4-oxo-4H-[1,3]thiazeto[3,2-a]quinoline-3-carboxylic acid] |  |  |  |  | 0.05 µg/mL (≈ 0.142 µM) | 0.0125 µg/mL (≈ 0.0354 µM) | 0.2 µg/mL (≈ 0.566 µM) | 0.1 µg/mL (≈ 0.283 µM) | 0.025 µg/mL (≈ 0.0708 µM) | 0.025 µg/mL (≈ 0.0708 µM) | 0.1 µg/mL (≈ 0.283 µM) | 
3 | CN1CCN(c2c(F)cc3c(=O)c(C(=O)O)c4n(c3c2F)CS4)CC1 [Example 7, 6,8-Difluoro-7-(4-methyl-1-piperazinyl)-4-oxo-4H-[1,3]thiazeto[3,2-a]quinoline-3-carboxylic acid] | 0.263 mg/mouse | 0.014 mg/mouse |  |  | 0.1 µg/mL (≈ 0.272 µM) | 0.025 µg/mL (≈ 0.068 µM) | 0.39 µg/mL (≈ 1.06 µM) | 0.05 µg/mL (≈ 0.136 µM) | 0.05 µg/mL (≈ 0.136 µM) | 0.0125 µg/mL (≈ 0.034 µM) | 0.2 µg/mL (≈ 0.544 µM) | 
4 | CC1Sc2c(C(=O)O)c(=O)c3cc(F)c(N4CCN(C)CC4)c(F)c3n21 (centres unmarked) [Example 4, 6,8-Difluoro-1-methyl-7-(4-methyl-1-piperazinyl)-4-oxo-[1,3]thiazeto[3,2-a]quinoline-3-carboxylic acid] | 0.177 mg/mouse | 0.011 mg/mouse |  |  | 0.2 µg/mL (≈ 0.524 µM) | 0.0125 µg/mL (≈ 0.0328 µM) | 0.2 µg/mL (≈ 0.524 µM) | 0.05 µg/mL (≈ 0.131 µM) | 0.05 µg/mL (≈ 0.131 µM) | 0.025 µg/mL (≈ 0.0655 µM) | 0.2 µg/mL (≈ 0.524 µM) | MIC ([7]; S23, 18 h, Table 2, same microorganisms as Table 1): 0.39 µg/mL (≈ 1.02 µM); MIC [10, 28]: 0.39 µg/mL (≈ 1.02 µM)
5 | CC1COc2c(N3CCN(C)CC3)c(F)cc3c(=O)c(C(=O)O)cn1c23 (racemic) [Ofloxacin, ofloxacin, reference compound] | 0.521 mg/mouse | 0.052 mg/mouse | 0.692 mg/mouse | 0.011 mg/mouse |  |  |  |  |  |  |  | MIC [3, 15]: 0.78 µg/mL (≈ 2.16 µM); MIC [4, 16]: 0.025 µg/mL (≈ 0.0692 µM); MIC [5, 17]: 1.56 µg/mL (≈ 4.32 µM); MIC [6, 18]: 0.1 µg/mL (≈ 0.277 µM); MIC [7, 19]: 1.56 µg/mL (≈ 4.32 µM); MIC ([8]; N1HJJC2, Table 1, 10^6 CFU/ml, 37° C., 18 hours, read-out: MIC): 0.1 µg/mL (≈ 0.277 µM); MIC [9, 20]: 0.05 µg/mL (≈ 0.138 µM); MIC [10, 21]: 1.56 µg/mL (≈ 4.32 µM); MIC [11, 21]: 0.39 µg/mL (≈ 1.08 µM); MIC [12]: 0.39 µg/mL (≈ 1.08 µM)
6 | CCOC(=O)c1c2n(c3c(F)c(N4CCNCC4)c(F)cc3c1=O)C(C)S2 (centres unmarked) [Example 1, Ethyl 6,8-difluoro-1-methyl-4-oxo-7-(1-piperazinyl)-4H-[1,3]thiazeto[3,2-a]quinoline-3-carboxyate] |  |  | 0.09 mg/mouse | 0.0046 mg/mouse |  |  |  |  |  |  |  | 
7 | O=C(O)c1c2n(c3c(F)c(N4CCNCC4)c(F)cc3c1=O)C(c1ccccc1)S2 (centres unmarked) [Example 21, 6,8-Difluoro-4-oxo-1-phenyl-7-(1-piperazinyl)-4H-[1,3]thiazeto[3,2-a]quinoline-3-carboxylic acid] |  |  |  |  | 1.56 µg/mL (≈ 3.63 µM) | 0.05 µg/mL (≈ 0.116 µM) | 0.39 µg/mL (≈ 0.908 µM) | 0.1 µg/mL (≈ 0.233 µM) | 0.1 µg/mL (≈ 0.233 µM) | ≤ 0.00625 µg/mL | 0.2 µg/mL (≈ 0.466 µM) | 
8 | NC1CCN(c2c(F)cc3c(=O)c(C(=O)O)c4n(c3c2F)CS4)C1 (centres unmarked) [Example 9, 7-(3-Amino-1-pyrrolidinyl)-6,8-difluoro-4-oxo-4H-[1,3]thiazeto[3,2-a]quinoline-3-carboxylic acid] |  |  |  |  | 0.1 µg/mL (≈ 0.283 µM) | ≤ 0.00625 µg/mL | 0.0125 µg/mL (≈ 0.0354 µM) | 0.1 µg/mL (≈ 0.283 µM) | 0.0125 µg/mL (≈ 0.0354 µM) | 0.0125 µg/mL (≈ 0.0354 µM) | 0.025 µg/mL (≈ 0.0708 µM) | 
9 | CCOC(=O)c1c2n(c3c(F)c(N4CCNCC4)c(F)cc3c1=O)C(c1ccc(F)cc1)S2 (centres unmarked) [Example 25, Ethyl 6,8-difluoro-1-(4-fluorophenyl)-4-oxo-7-(1-piperazinyl)-4H-[1,3]thiazeto[3,2-a]quinoline-3-carboxylate] |  |  |  |  | 1.56 µg/mL (≈ 3.28 µM) | 0.05 µg/mL (≈ 0.105 µM) | 0.39 µg/mL (≈ 0.82 µM) | 0.1 µg/mL (≈ 0.21 µM) | 0.1 µg/mL (≈ 0.21 µM) |  | 0.2 µg/mL (≈ 0.421 µM) | 
